The values below are quoted from earlier work in US20250241356A1, “ORAL COMPOSITION COMPRISING RECEPTOR MODULATOR” (NICOVENTURES TRADING LIMITED, priority 2022, published 2025).

Read-outs that look alike come from different tables or passages of the source.

The target of data set [1] is TRPM8 (Mus musculus, UniProt Q8R4D5).
TRPM8, sequence (Q8R4D5 whole entry): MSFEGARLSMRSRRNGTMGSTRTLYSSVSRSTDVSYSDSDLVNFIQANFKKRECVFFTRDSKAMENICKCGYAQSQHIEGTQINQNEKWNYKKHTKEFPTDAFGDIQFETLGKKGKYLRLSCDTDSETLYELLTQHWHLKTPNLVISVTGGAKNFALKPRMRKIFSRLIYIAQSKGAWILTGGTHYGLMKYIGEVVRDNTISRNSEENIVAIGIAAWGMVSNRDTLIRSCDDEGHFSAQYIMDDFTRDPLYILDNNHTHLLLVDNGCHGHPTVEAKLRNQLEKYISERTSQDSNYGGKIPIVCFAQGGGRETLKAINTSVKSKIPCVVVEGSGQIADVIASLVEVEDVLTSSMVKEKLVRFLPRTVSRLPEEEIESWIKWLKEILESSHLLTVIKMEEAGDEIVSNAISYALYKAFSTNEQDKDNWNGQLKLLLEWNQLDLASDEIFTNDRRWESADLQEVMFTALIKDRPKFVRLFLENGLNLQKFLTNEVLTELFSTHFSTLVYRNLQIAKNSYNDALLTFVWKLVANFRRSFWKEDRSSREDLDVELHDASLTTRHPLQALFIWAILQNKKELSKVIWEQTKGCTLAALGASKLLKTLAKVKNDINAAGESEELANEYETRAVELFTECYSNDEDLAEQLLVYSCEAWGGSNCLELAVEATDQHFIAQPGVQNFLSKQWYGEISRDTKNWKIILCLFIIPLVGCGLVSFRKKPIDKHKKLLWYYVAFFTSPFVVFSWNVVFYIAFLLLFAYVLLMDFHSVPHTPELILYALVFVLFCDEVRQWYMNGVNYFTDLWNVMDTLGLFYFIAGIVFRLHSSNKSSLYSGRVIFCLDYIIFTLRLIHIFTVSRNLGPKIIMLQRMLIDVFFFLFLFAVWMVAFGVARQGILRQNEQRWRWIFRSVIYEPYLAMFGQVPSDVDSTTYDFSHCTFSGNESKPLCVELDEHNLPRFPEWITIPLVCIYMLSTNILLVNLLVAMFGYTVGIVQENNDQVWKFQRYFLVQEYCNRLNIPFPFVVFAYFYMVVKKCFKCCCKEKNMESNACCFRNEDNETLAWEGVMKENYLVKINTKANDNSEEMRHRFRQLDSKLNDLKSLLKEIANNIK

On to `O=C1NC(c2cccc([N+](=O)[O-])c2)=CCN1c1ccccc1O` [icilin, 1-(2-hydroxyphenyl)-4-(3-nitrophenyl)-3,6-dihydropyrimidin-2-one], for which the responses to icilin entry in data set [1] (extracellular [H+] increased from pH 7.3 to approximately pH 6) is “abolished”; in data set [1] (standard physiological solutions of pH 7.3), “evokes [Ca2+] dependent responses”.

Take `CC(/C=C/C=C(C)/C=C/C(=O)O)=C\C=C\C=C(C)\C=C\C=C(C)\C=C\C(=O)O` (stereo in doubt) [norbixin, (2E,4E,6E,8E,10E,12E,14E,16E,18E)-4,8,13,17-tetramethylicosa-2,4,6,8,10,12,14,16,18-nonaenedioic acid]: the solubility in water entry was “water-soluble”.

Regarding `COC(=O)/C=C/C(C)=C\C=C\C(C)=C\C=C\C=C(C)\C=C\C=C(C)\C=C\C(=O)O` [bixin, (2E,4E,6E,8E,10E,12E,14E,16Z,18E)-20-methoxy-4,8,13,17-tetramethyl-20-oxoicosa-2,4,6,8,10,12,14,16,18-nonaenoic acid], the “solubility in fats and alcohols” value is “soluble in fats and alcohols”; the solubility in water entry is reported as “insoluble in water”. Further, the “chemical stability when isolated” value (converts via isomerization into trans-bixin (β-bixin)) is “chemically unstable when isolated”.
